From US20230287068A1, “KERATIN BD-6, PREPARATION METHOD THEREFOR AND PHARMACEUTICAL COMPOSITION AND USE THEREOF” (INSTITUTE OF MATERIAL MEDICA, CHINESE ACADEMY OF MEDICAL …, priority 2019, published 2023) come the findings set out here.

Counter-ions that a name gives are not always drawn. Marks after values point to notes of the source that are not given here.

Experiment [1] deals with mice cough induced by ammonia water. In words: Antitussive test, cough induced by ammonia water in mice. In kind it is in vivo, ICR mice. As for the experimental part: • Animals: male ICR mice; • Drugs and reagents: dextromethorphan hydrobromide, ammonia water, 0.2% CMC-Na, protein BD-6; • Apparatus: Compressed nebulizer (403T type), balance (XS105DU type). • Experiment grouping: • Solvent control group; • Dextromethorphan 15 mg/kg group; • Protein BD-6, 20 mg/kg group, 50 mg/kg group.
Dextromethorphan and different doses of protein BD-6 (administration volume 10 ml/kg) were given orally in groups, and the solvent control group was given the same volume of distilled water. One hour later, mice were put into a sealed box and atomized 10% ammonia water for 10 seconds, and then observed and recorded the incubation period of cough in mice and the number of coughs in 2 minutes.
Record the time point of oral administration, the time point of atomization experiment, the incubation period of mice cough and the number of coughs within 2 minutes, respectively. The incubation period of cough refers to the number of seconds from the start of the atomization of ammonia to the occurrence of cough. The performance of coughing in mice is based on contraction of their abdominal muscles (breast contraction) and opening their mouths at the same time. Calculate the mean and standard error of each group of data, and use TTEST to compare the model group with other groups, and P<0.05 is considered as a significant difference.

Experiment [2] has as its system PLO-induced epilepsy in mice. In words: Pilocarpine (PLO) induced convulsive epilepsy in mice. It is filed as in vivo, ICR mice. Further details: mortality rate: unit not given here. The following applies: Diazepam 2 mg/kg, PLO 225 mg/kg i.p. As for the experimental part:
• Animals: male ICR mice; • Drugs: Pilocarpine HCl (PLO, pilocarpine, pilocarpine hydrochloride), Diazepam (diazepam tablets), protein BD-6. • Experiment grouping: • Model group: • Diazepam 2 mg/kg group; • Protein BD-6, 50 mg/kg group, 200 mg/kg group.
The drug was administered once in the afternoon the day before modeling, PLO-225 mg/kg (modeling agent) was injected intraperitoneally 1 hour after the test drug was administered intragastrically on the day of modeling. And positive drug can be administered once 20 minutes before modeling. Observe for 30 minutes after PLO injection.
Observation indicators: ①Seizure situation: the time of seizures from Grade II to Grade IV; ②the time to death.
(§1) Seizure grade: Refer to Racine grading standard: Grade 0: No response; Grade I: manifested as twitching of facial muscles or the corners of the mouth; Grade II: can nod; Grade III: twitching of one limb; Grade IV: rigidity or body twitching; Grade V: generalized epilepsy (generalized tonic seizures).
Count the number of Grade IV seizures and deaths in each group of mice in the experiment; Grade II, III and IV incubation period. […] Chi-square test was used for statistics of the number of cases. The mean value and standard error of the incubation period were calculated, and TTEST was used to compare the model group with other groups. P<0.05 was considered as a significant difference.

The test system of experiment [3] is PTZ-induced epilepsy in mice. The experiment is described as follows: Pentylenetetrazole (PTZ) induced epilepsy in mice. In kind it is in vivo, ICR mice. The conditions noted are these: Retigabine 60 mg/kg, PTZ 65 mg/kg i.p. As for the experimental part: • Animals: male ICR mice; • Medicines: Pentylenetetrazol (PTZ), Retigabine, Protein BD-6. • Experiment grouping: • Model group; • Retigabine 60 mg/kg group; • Protein BD-6, 50 mg/kg group, 200 mg/kg group;
The drug was administered once in the afternoon the day before modeling, On the day of modeling, PTZ-65 mg/kg (modeling agent) was injected intraperitoneal 1 hour after the test drug was administered intragastrically, and the positive drug can be administered once half an hour before modeling. Continue to observe for 15 minutes after injection of PTZ.
Observation index: ①Seizure situation: the time of seizures from Grade III to Grade VI; ②Death situation
as §1
Count the cases of seizures and deaths in each group of mice in the experiment; Grade III and IV incubation period. The incubation period of mice that have not attacked to Grade IV is recorded as the maximum of 900 seconds. Chi-square test was used for statistics of the number of cases. Calculate the mean and standard error of the incubation period. Use TTEST to compare the model group with other groups, and P<0.05 is considered as a significant difference.

Experiment [4] relates to lipopolysaccharide (LPS) induced fever model in rats. In words: Lipopolysaccharide (LPS) induced fever model in SD rats. In kind it is in vivo. As to the method:
• Animals: 230-260 grams of male SD rats; • Drugs: lipopolysaccharide (LPS, SIGMAL-2880), aspirin (SIGMAA2093), protein BD-6; • Instruments: electronic balance (SARTORIUS BP121S type), electronic clinical thermometer (CITIZEN CT-513W type). • Experiment grouping: • Normal control group; • Model group: lipopolysaccharide fever model; • Positive control group: Aspirin 300 mg/kg group; • Protein BD-6, 10 mg/kg group, 50 mg/kg group.
Method: the method of intraperitoneal injection of Lipopolysaccharide to replicate rat fever model.
(§2) Preparation of experimental animals: After the experimental animals adapt to the experimental environment (temperature 22° C.±2° C., relative humidity 50%±2%) for 1 day. Pre-adaptation to measure rectal temperature at 8:00 and 15:00, rats were fasted and water was taken freely 12 h before experiment, and let the animal to empty its feces before measuring the rectal temperature. Apply petroleum jelly to the electronic thermometer probe before each temperature measurement. Insert the rat rectum 2 cm (can be marked at 2 cm to ensure that the depth of each insertion is consistent), and record the body temperature after the reading is stable.
Intraperitoneal injection of lipopolysaccharide to replicate rat fever model: The body temperature of the rats was measured before modeling. Qualified rats with a body temperature of 36.2-37.3° C. were selected and randomly divided into groups with 8 rats in each group. After oral administration of aspirin and different doses of protein BD-6, lipopolysaccharide (20 µg/kg, 2 ml/kg) was injected intraperitoneally immediately, and the normal control group was injected intraperitoneally with an equal volume of normal saline. The body temperatures of the rats were monitored after 2 hours for a total of 8 hours.
(§3) According to the body temperature measured at each time point on the day of the experiment, calculate the mean, standard deviation and standard error of the body temperature of each group of rats. The data of each group was compared with TTEST, and P<0.05 was considered as a significant difference.

Experiment [5] has as its system yeast-induced fever model in rats. In words: Yeast-induced fever model in SD rats. In kind it is in vivo. As to the method: • Medicines: yeast (OXOID LP0021), aspirin (SIGMA A2093), protein BD-6; • Instruments: electronic balance (SARTORIUS BP121S type), electronic clinical thermometer (CITIZEN CT-513W type). • Experiment grouping: • Normal control group; • Model group: yeast fever model; • Positive control group: Aspirin 300 mg/kg group; • Protein BD-6, 10 mg/kg group, 50 mg/kg group.
as §2
Subcutaneous injection of dry yeast to replicate rat fever model: The body temperature of the rats was measured before modeling. Qualified rats with a body temperature of 36.2-37.3° C. were selected and randomly divided into groups with 8 rats in each group. After oral administration of aspirin and different doses of protein BD-6, 20% yeast suspension (10 ml/kg) was injected subcutaneously immediately, and the normal control group was injected intraperitoneally with an equal volume of normal saline. The body temperatures of the rats were monitored after 2 hours for a total of 8 hours.
as §3

The test system of experiment [6] is acetic acid writhing of ICR mice. The experiment is described as follows: Acetic acid writhing test in ICR mice. It is filed as in vivo. As to the method: • Animals: male ICR mice; • Drugs and reagents: aspirin, physiological saline, glacial acetic acid, protein BD-6. • Experiment grouping: • Model group; • Aspirin 300 mg/kg group; • Protein BD-6, 50 mg/kg group, 200 mg/kg group.
One day after the experimental animals adapt to the environment, Aspirin 300 mg/kg, protein BD-6 50 mg/kg, 200 mg/kg were given orally one hour in advance, and the administration volume was 10 ml/kg; Then, 0.6% acetic acid solution was injected intraperitoneally, and the incubation period (seconds) and frequency of writhing in the animal was observed within 15 minutes.
Calculate the mean and standard error of the data in each group. Compared with the model group by TTEST, P<0.05 was considered as statistically different.

Where [7] appears, read: aspirin 300 mg/kg oral, LPS 20 µg/kg i.p., SD rats.
Setting [8] is: aspirin 300 mg/kg oral, 20% yeast s.c., SD rats.
Where [9] appears, read: aspirin 300 mg/kg oral, 0.6% acetic acid i.p., within 15 minutes.

Consider `COc1ccc2c(c1)[C@]13CCCC[C@@H]1[C@H](C2)N(C)CC3` [Dextromethorphan, dextromethorphan hydrobromide, reference compound], for which the “Incubation period (cough)” value in experiment [1] (Dextromethorphan 15 mg/kg oral, 10% ammonia water 10 seconds, X±SEM) came to 37.3 ± 2.4 s. Also, in experiment [1] (Dextromethorphan 15 mg/kg oral, within 2 minutes, X±SEM), the Number of coughs is recorded as 30.2±2.0^∗∗. The “Incubation period and number of coughs vs solvent control (in words)” value in experiment [1] (dextromethorphan 15 mg/kg, P<0.05) is “significant improvement in the incubation period and the number of coughs”.

As to `CN1C(=O)CN=C(c2ccccc2)c2cc(Cl)ccc21` [Diazepam, reference compound], in experiment [2] (10 mice), the Cases of deaths worked out at 0, the “Grade IV seizure rate” value is listed as 0** % and the mortality rate was 0. Besides, the “Cases of Grade IV” value in experiment [2] (10 mice, 30 min observation) is given as 0**. Further, in experiment [2] (mean±SEM), the “Grade II seizure incubation period” value is reported as 151±6^∗∗ s and the “Grade III seizure incubation period” value is on record as 275±20^∗∗ s. Further, the “Grade IV seizure incubation period” value in experiment [2] (mean±SEM, maximum 1800 seconds) was 1800±0^∗∗ s.

Turning to `CCOC(=O)Nc1ccc(NCc2ccc(F)cc2)cc1N` [Retigabine, reference compound], in experiment [3] (10 mice), the Cases of deaths worked out at 0, the “Grade IV seizure rate” value came out at 40%* and the mortality rate is listed as 0%. In experiment [3] (10 mice, 15 min observation), the “Cases of Grade IV” value is on record as 4*. Further, the “Grade III seizure incubation period” value in experiment [3] (mean±SEM) is listed as 104±13^∗∗ s. In addition, in experiment [3] (mean±SEM, maximum 900 seconds), the “Grade IV seizure incubation period” value is given as 634±109^∗∗ s.

`CC(=O)Oc1ccccc1C(=O)O` [aspirin, reference compound]: in experiment [4] (setting [7]), the “Body temperature 2 hours after modeling” value is 36.7±0.1 °C, the “Body temperature 4 hours after modeling” value stood at 36.7±0.1 °C, the “Body temperature 6 hours after modeling” value was 36.6±0.1 °C and the “Body temperature 8 hours after modeling” value turned out to be 36.6±0.1 °C. For the same compound, in experiment [4] (aspirin 300 mg/kg, 2, 4, 6 and 8 hours after modeling, P<0.05 vs model group), the “Effect on increase in body temperature (in words)” value is on record as “can effectively inhibit the increase in body temperature of model rats”. In addition, in experiment [5] (setting [8]), the “Body temperature 2 hours after modeling” value was 37.1±0.1 °C, the “Body temperature 4 hours after modeling” value was found to be 37.0±0.1 °C, the “Body temperature 6 hours after modeling” value is 37.1±0.1 °C and the “Body temperature 8 hours after modeling” value stood at 37.1±0.1 °C. In addition, the “Effect on increase in body temperature (in words)” value in experiment [5] (aspirin 300 mg/kg, 4, 6 and 8 hours after modeling, P<0.05 vs model group) was “can effectively inhibit the increase in body temperature of model rats”. Also, in experiment [6] (Aspirin 300 mg/kg, P<0.05), the “Writhing incubation period and times of writhing vs model group (in words)” value is “can significantly delay the incubation period of writhing and reduce the times of writhing”. In experiment [6] (setting [9]), the Frequency of writhing is given as 14.8±3.3^∗∗ times and the Writhing incubation period was 281.6±26.0^∗∗ seconds.
